Tested on: NBD1/3D
Assay: Aggregation analysis using differential static light scattering (DSLS), NBD1 thermal stability
Assay type: binding, Human
Settings: ΔTagg versus DMSO control; compound at 100 μM
Outline: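 Thermal stabilisation reported as ΔTagg, i.e. aggregation temperature relative to averaged DMSO wells. Tagg came from the inflection of differential static light scattering imaged 25–70 °C while NBD1 (0.2 mg/ml, Tris pH 7.6 buffer containing ATP, MgCl2, DTT, glycerol) was ramped 1 °C/min.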

Row | SMILES | DSLS NBD1/3D Human Stability delta-T (° C.) @ 100 (μM)
1 | O=C(O)CCc1cccc(Cc2cnc(-c3cccc(Oc4c(F)cc5[nH]ccc5c4SC(F)(F)F)c3)[nH]2)c1 [Example 102, 3-(3-((2-(3-((6-fluoro-4-((trifluoromethyl)thio)-1H-indol-5-yl)oxy)phenyl)-1H-imidazol-5-yl)methyl)phenyl)propanoic acid] | B (B: 5-10° C.)
2 | Cc1c(Oc2ccc(F)c(-c3nc(Cc4cccc(CCC(=O)O)c4)n(C)n3)c2)c(F)cc2[nH]ccc12 [Example 241, 3-(3-((3-(2-Fluoro-5-((6-fluoro-4-methyl-1H-indol-5-yl)oxy)phenyl)-1-methyl-1H-1,2,4-triazol-5-yl)methyl)phenyl)propanoic acid] | B (B: 5-10° C.)
3 | CC(O)(c1cccc(CCC(=O)O)c1)c1cnc(-c2cc(Oc3c(F)cc4[nH]ccc4c3CC(F)(F)F)ccc2F)[nH]1 (centres unmarked) [Example 190, 3-(3-(1-(2-(2-fluoro-5-((6-fluoro-4-(2,2,2-trifluoroethyl)-1H-indol-5-yl)oxy)phenyl)-1H-imidazol-5-yl)-1-hydroxyethyl)phenyl) propanoic acid] | B (B: 5-10° C.)
4 | CS(=O)(=O)c1c(Oc2cccc(-c3ncn(Cc4cccc(CCC(=O)O)c4)n3)c2)c(F)cc2[nH]ccc12 [Example 32, 3-(3-((3-(3-((6-Fluoro-4-(methylsulfonyl)-1H-indol-5-yl)oxy)phenyl)-1H-1,2,4-triazol-1-yl)methyl)phenyl)propanoic acid] | B (B: 5-10° C.)
5 | Cc1c(Oc2ccc(F)c(-c3ncc(C4(c5cc(F)cc(CCC(=O)O)c5)CC4)[nH]3)c2)c(F)cc2[nH]ccc12 [Example 156, 3-(3-fluoro-5-(1-(2-(2-fluoro-5-((6-fluoro-4-methyl-1H-indol-5-yl)oxy)phenyl)-1H-imidazol-5-yl)cyclopropyl)phenyl)propanoic acid] | B (B: 5-10° C.)
6 | Cc1c(Oc2ccc(F)c(-c3nc(C(C)(O)c4cc(Cl)cc(CCC(=O)O)c4)c[nH]3)c2)c(F)cc2[nH]ccc12 (centres unmarked) [Example 189, 3-(3-chloro-5-(1-(2-(2-fluoro-5-((6-fluoro-4-methyl-1H-indol-5-yl)oxy)phenyl)-1H-imidazol-4-yl)-1-hydroxyethyl)phenyl) propanoic acid] | B (B: 5-10° C.)
7 | CC(O)(c1cccc(CCC(=O)O)c1)c1csc(-c2cccc(Oc3c(F)cc4[nH]ccc4c3P(C)(C)=O)c2)n1 (centres unmarked) [Example 98, 3-(3-(1-(2-(3-((4-(Dimethylphosphoryl)-6-fluoro-1H-indol-5-yl)oxy)phenyl)thiazol-4-yl)-1-hydroxyethyl)phenyl)propanoic acid] | B (B: 5-10° C.)
8 | CC(C)(c1cccc(CCC(=O)O)c1)c1cnc(-c2cc(Oc3c(F)cc4[nH]ccc4c3F)ccc2F)[nH]1 [Example 145, 3-(3-(2-(2-(5-((4,6-difluoro-1H-indol-5-yl)oxy)-2-fluorophenyl)-1H-imidazol-5-yl)propan-2-yl)phenyl)propanoic acid] | B (B: 5-10° C.)
9 | Cc1c(Oc2ccc(F)c(-c3nnc(Cc4cccc(CCC(=O)O)c4)[nH]3)c2)c(F)cc2[nH]ccc12 [Example 238, 3-(3-((5-(2-Fluoro-5-((6-fluoro-4-methyl-1H-indol-5-yl)oxy)phenyl)-4H-1,2,4-triazol-3-yl)methyl)phenyl)propanoic acid] | B (B: 5-10° C.)
10 | O=C(O)CCCc1cccc(Cc2nnc(-c3cccc(Oc4ccc5[nH]ccc5c4)c3)[nH]2)c1 [Example 259, 4-(3-((5-(3-((1H-Indol-5-yl)oxy)phenyl)-4H-1,2,4-triazol-3-yl)methyl)phenyl)butanoic acid] | B (B: 5-10° C.)
11 | CC(O)(c1cc(F)cc(CCC(=O)O)c1)c1c[nH]c(-c2cc(Oc3c(F)cc4[nH]ccc4c3F)ccc2F)n1 (centres unmarked) [Example 220, 3-(3-(1-(2-(5-((4,6-Difluoro-1H-indol-5-yl)oxy)-2-fluorophenyl)-1H-imidazol-4-yl)-1-hydroxyethyl)-5-fluorophenyl)propanoic acid] | B (B: 5-10° C.)
12 | CC(C)(c1cnc(-c2cc(Oc3ccc4[nH]ccc4c3F)ccc2F)[nH]1)c1cccc(CCC(=O)O)c1F [Example 162, 3-(2-fluoro-3-(2-(2-(2-fluoro-5-((4-fluoro-1H-indol-5-yl)oxy)phenyl)-1H-imidazol-5-yl)propan-2-yl)phenyl)propanoic acid] | B (B: 5-10° C.)
13 | O=C(O)CCc1cccc(Cc2nnc(-c3cccc(Oc4c(F)cc5[nH]ccc5c4[S+]([O-])C(F)F)c3)[nH]2)c1 (centres unmarked) [Example 25, 3-(3-((5-(3-((4-((Difluoromethyl)sulfinyl)-6-fluoro-1H-indol-5-yl)oxy)phenyl)-4H-1,2,4-triazol-3-yl)methyl)phenyl)propanoic acid] | C (C: ≤5° C.)
14 | CC(O)(c1cccc(CCC(=O)O)c1)c1csc(-c2cccc(Oc3c(F)cc4[nH]ccc4c3S(C)(=O)=O)c2)n1 (centres unmarked) [Example 37, 3-(3-(1-(2-(3-((6-Fluoro-4-(methylsulfonyl)-1H-indol-5-yl)oxy)phenyl)thiazol-4-yl)-1-hydroxyethyl)phenyl)propanoic acid] | B (B: 5-10° C.)
15 | O=C(O)CCc1cccc(C(O)c2c[nH]c(-c3cc(Oc4c(F)cc5[nH]ccc5c4F)ccc3F)n2)c1 (centres unmarked) [Example 177, 3-(3-((2-(5-((4,6-difluoro-1H-indol-5-yl)oxy)-2-fluorophenyl)-1H-imidazol-4-yl)(hydroxy)methyl)phenyl)propanoic acid] | A (A: T ≥ 10° C.)
16 | O=C(O)CCc1cccc(Cc2c[nH]c(-c3cc(Oc4c(F)cc5[nH]ccc5c4Cl)ccc3F)n2)c1F [Example 111, 3-(3-((2-(5-((4-chloro-6-fluoro-1H-indol-5-yl)oxy)-2-fluorophenyl)-1H-imidazol-4-yl)methyl)-2-fluorophenyl)propanoic acid] | B (B: 5-10° C.)
17 | c1cc(CCCCc2nnn[nH]2)cc(Cc2nnc(-c3cccc(Oc4ccc5[nH]ccc5c4)c3)[nH]2)c1 [Example 260, 5-(3-(5-(3-(4-(1H-Tetrazol-5-yl)butyl)benzyl)-4H-1,2,4-triazol-3-yl)phenoxy)-1H-indole] | C (C: ≤5° C.)
18 | [2H]C([2H])([2H])C(C#N)(c1cccc(CCC(=O)O)c1)c1cnc(-c2cc(Oc3c(F)cc4[nH]ccc4c3F)ccc2F)[nH]1 (centres unmarked) [Example 60, 3-(3-(1-cyano-1-(2-(5-((4,6-difluoro-1H-indol-5-yl)oxy)-2-fluorophenyl)-1H-imidazol-5-yl)ethyl-2,2,2-d3)phenyl)propanoic acid] | B (B: 5-10° C.)
19 | CC(C)(c1cnc(-c2cc(Oc3c(F)cc4[nH]ccc4c3CC(F)(F)F)ccc2F)[nH]1)c1cccc(CCC(=O)O)c1F [Example 163, 3-(2-fluoro-3-(2-(2-(2-fluoro-5-((6-fluoro-4-(2,2,2-trifluoroethyl)-1H-indol-5-yl)oxy)phenyl)-1H-imidazol-5-yl)propan-2-yl)phenyl)propanoic acid] | B (B: 5-10° C.)
20 | C[S+]([O-])c1c(Oc2cccc(-c3ncn(Cc4cccc(CCC(=O)O)c4)n3)c2)c(F)cc2[nH]ccc12 (centres unmarked) [Example 33, 3-(3-((3-(3-((6-Fluoro-4-(methylsulfinyl)-1H-indol-5-yl)oxy)phenyl)-1H-1,2,4-triazol-1-yl)methyl)phenyl)propanoic acid] | B (B: 5-10° C.)
21 | Cc1nc(-c2cc(Oc3c(F)cc4[nH]ccc4c3F)ccc2F)[nH]c1C(O)c1cccc(CCC(=O)O)c1F (single isomer, unassigned) [Example 179, 3-(3-((2-(5-((4,6-difluoro-1H-indol-5-yl)oxy)-2-fluorophenyl)-4-methyl-1H-imidazol-5-yl)(hydroxy)methyl)-2-fluorophenyl)propanoic acid] | B (B: 5-10° C.)
22 | O=C(O)CCCCCCc1ccc(Cc2nnc(-c3cccc(Oc4ccc5[nH]ccc5c4)c3)[nH]2)cc1 [Example 254, 7-(4-((5-(3-((1H-Indol-5-yl)oxy)phenyl)-4H-1,2,4-triazol-3-yl)methyl)phenyl)heptanoic acid] | C (C: ≤5° C.)
23 | Cc1c(Oc2ccc(F)c(-c3ncc(C4(c5cccc(CCC(=O)O)c5)CCCC4)[nH]3)c2)c(F)cc2[nH]ccc12 [Example 146, 3-(3-(1-(2-(2-fluoro-5-((6-fluoro-4-methyl-1H-indol-5-yl)oxy)phenyl)-1H-imidazol-5-yl)cyclopentyl)phenyl)propanoic acid] | B (B: 5-10° C.)
24 | CCC(C#N)(c1cccc(CCC(=O)O)c1)c1c[nH]c(-c2cc(Oc3c(F)cc4[nH]ccc4c3C)ccc2F)n1 (centres unmarked) [Example 51, 3-(3-(1-cyano-1-(2-(2-fluoro-5-((6-fluoro-4-methyl-1H-indol-5-yl)oxy)phenyl)-1H-imidazol-4-yl)propyl)phenyl)propanoic acid] | A (A: T ≥ 10° C.)
25 | Cc1c(Oc2ccc(F)c(-c3ncc(C4(c5cccc(CCC(=O)O)c5)CC(C)OC(C)C4)[nH]3)c2)c(F)cc2[nH]ccc12 (centres unmarked) [Example 149, 3-(3-(4-(2-(2-fluoro-5-((6-fluoro-4-methyl-1H-indol-5-yl)oxy)phenyl)-1H-imidazol-5-yl)-2,6-dimethyltetrahydro-2H-pyran-4-yl)phenyl)propanoic acid] | B (B: 5-10° C.)
26 | Cc1c(Oc2cccc(-c3ccnn3C(C)c3cccc(CC(=O)O)c3)c2)ccc2[nH]ccc12 (centres unmarked) [Example 3, 2-(3-(1-(5-(3-((4-methyl-1H-indol-5-yl)oxy)phenyl)-1H-pyrazol-1-yl)ethyl)phenyl)acetic acid] | C (C: ≤5° C.)

From patent US20240279220A1, “INDOLE COMPOUNDS AND METHODS OF USE” (Genzyme Corporation, priority 2021, published 2024)
